These results are taken from publication PMC8398059, “Peptoids with Antibiofilm Activity against the Gram Negative Obligate Anaerobe, Fusobacterium nucleatum” (Molecules, 2021).

What all share (type): cell-based
For one data set, the system named is human erythrocytes. Kind of data set: Haemolytic assay. The following applies: peptoid 100 µM, 37 °C, 1 h, absorbance 450 nm; positive control 1% Triton x-100; n = 3 independent experiments, 3 replicates each. The procedure:
The haemolytic assay was employed to determine the potential cytotoxicity of the peptoids against human red blood cells. Blood samples were collected with ethical approval and informed consent in vacutainer containers with dipotassium ethylene- diaminetetraacetic acid (K2-EDTA). Blood was then transferred to a 50 mL tube and centrifuged at 1200× g for 5 min at room temperature. The supernatant was removed and PBS was added to the original volume of sample obtained. This step was repeated a further 3 times. The red blood cells were then diluted to 8% of their original volume for use in the haemolytic assay. A 1% solution of Triton x-100 in PBS served as a positive control, and PBS was used as a negative control.
Peptoids 1, 2, 3, 4, 5, 6, 7, 8 and 9 were diluted in PBS to 200 µM. A total volume of 100 µL of each peptoid was placed in the wells of a v-bottomed 96-well microtitre plate. Red blood cells (100 µL), prepared as outlined above, were then added. The final peptoid concentration in each well was therefore 100 µM. The plate was sealed with an adhesive film to prevent evaporation and incubated at 37 °C for 1 h. Following this time, the plate was centrifuged at 4000 RPM for 5 min to pellet unlysed red blood cells. Following this step, 100 µL of supernatant was carefully removed from each well and added to a flat-bottomed 96-well microtitre plate. The absorbance was read at 450 nm using a Tecan Genios (Männedorf, Switzerland) plate reader, and the percentage of red blood cells lysed was calculated.

In data set [1] the test system is Fusobacterium nucleatum biofilm. The experiment in a line: Biofilm inhibition assay with PMA-qPCR. The following applies: strain NCTC 10562, anaerobic, 96-well plate, 48 h with peptoid + 48 h maturation, n = 3 independent experiments. The method, then: The F. nucleatum type strain (NCTC 10562, originally isolated from human, inflamed gingival tissue) was obtained from the National Collection of Type Cultures. The optical density (OD) of an overnight culture was measured spectrophotometrically at 570 nm and diluted with fresh broth to an OD of 0.30–0.35. The culture was further diluted 1 in 50 with anaerobic broth, giving a final inoculum concentration of approximately 5 × 10^6 CFU/mL. A biofilm inhibition assay was undertaken in a 96-well plate format. Peptoids 4 and 9 were added along with the inoculum (90 µL of inoculum in broth and 10 µL of peptoid solution) to each well, to yield peptoid concentrations of 1 µM and 10 µM. A solution containing 10 µL of PBS and 90 µL of anaerobic broth acted as an untreated control. Biofilms were allowed to develop in the presence of peptoids 4 or 9 for 48 h. After 48 h biofilm development, planktonic cells were removed by gently washing three times with PBS and then replacing the broth with 100 µL of fresh anaerobic broth prior to a further 48 h incubation for biofilm maturation. After this time, the wells were gently washed three times with 100 µL of PBS to remove planktonic cells. Plates were then sealed with parafilm, and the biofilms were dislodged from the wells in an ultrasonic bath for 20 min. Plates were then returned to the anaerobic cabinet and the dislodged biofilm samples were collected in Eppendorf tubes.
Propidium monoazide (PMA)-qPCR was undertaken essentially as previously described. Briefly, PMA (Biotium, Fremont, CA, USA), was diluted 1 in 50 with PBS. The diluted PMA was then added to the dislodged biofilm samples in a 1:1 ratio in an Eppendorf tube, to give a final PMA concentration of 200 µM. The Eppendorfs were incubated at 37 °C for 10 min in the dark and then placed under a broad spectrum LED floodlight (ELRD, HL60 ^0 LEDx Max 0.1V) for 10 min. During this time, the Eppendorfs were inverted several times. Bacterial DNA was then extracted using the Qiagen blood and tissue kit (Germantown, MD, USA) according to the manufacturer’s instructions. Briefly, bacterial samples released from biofilms were centrifuged at 14000 RPM for 6 min, and the supernatant was removed. Bacterial pellets were resuspended in 200 µL of AL buffer, and 25 µL of proteinase K was added to each Eppendorf. The suspensions were then heated to 56 °C for 30 min with shaking. Following this, 200 µL of ethanol was added to each Eppendorf and mixed gently. The contents were placed in fresh spin columns in 2 mL collection tubes. The spin columns were centrifuged at 8000 RPM for 2 min. The flow-through and the collection tubes were discarded. The spin columns were placed in fresh collection tubes, and 500 µL of AW1 buffer was added to each column. […]
A general note: Quantitative PCR measures a nucleic acid by following its amplification.

The test system of data set [2] is human primary gingival fibroblasts. The experiment in a line: MTT cell viability assay. The following applies: peptoid 1 µM, 24 h, 37 °C; n = 3 independent experiments, 6 replicates each. The procedure: Cultured primary gingival fibroblast cells were obtained with ethical approval and informed consent, and were grown as previously described. Cells were seeded in 96-well plates at a concentration of 1 × 10^5 cells/mL (100 µL per well). Plates were incubated at 37 °C for 48 h to allow cells to reach confluence. Peptoids 1, 3, 4, 5, 6, 7 and 9 were diluted to 200 µM, 20 µM and 2 µM. The culture medium was removed and replaced with 50 µL of Dulbecco’s Modified Eagle’s Medium (DMEM) and 50 µL of the relevant peptoid. The cells were incubated for 24 h at 37 °C. After this time, 10 µL of 3-(4, 5- dimethylthiazol-2-yl)-2,5-diphenyltetrazolium bromide (MTT) reagent (Sigma-Aldrich, Poole, UK) was added to each well and the plate was incubated for a further 3 h at 37 °C. The medium was removed by aspiration and the wells were allowed to dry for 20 min. Then, 200 µL of dimethyl sulfoxide (DMSO) (Sigma-Aldrich, Poole, UK) was added to all wells and the plate was placed in an incubator for 30 min. The absorbance of the wells was read in a Tecan Genios (Männedorf, Switzerland) plate reader at 510 nm after 60 s of orbital shaking.
(Tetrazolium dyes change colour on reduction, which living cells bring about.)

Non-standard residues stand in square brackets, D forms with d. Residues, ends and D or L forms follow the SMILES beside them. Gly(N-(CH2)6NH2) = NCCCCCCNCC(=O)O; Gly(N-2-aminoethyl) = NCCNCC(=O)O; Nspe = C[C@H](NCC(=O)O)c1ccccc1; Nphe = O=C(O)CNCc1ccccc1; Nlys = NCCCCNCC(=O)O

On to `NCCCCCCNCC(=O)N(CC(=O)N(CC(=O)N(CCCCCCN)CC(=O)N(CC(=O)N(CC(=O)N(CCCCCCN)CC(=O)N(CC(=O)N(CC(=O)N(CCCCCCN)CC(=O)N(CC(=O)N(CC(N)=O)Cc1ccccc1)Cc1ccccc1)Cc1ccccc1)Cc1ccccc1)Cc1ccccc1)Cc1ccccc1)Cc1ccccc1)Cc1ccccc1` [Peptoid 6] (H-[Gly(N-(CH2)6NH2)][Nphe][Nphe][Gly(N-(CH2)6NH2)][Nphe][Nphe][Gly(N-(CH2)6NH2)][Nphe][Nphe][Gly(N-(CH2)6NH2)][Nphe][Nphe]-NH2; N-terminus assumed), for which, in the data set on human erythrocytes, the “Percentage lysis of human erythrocytes” value was “less than 5%”.

In the case of `NCCCCCCNCC(=O)N(CC(=O)N(CC(=O)N(CCCCCCN)CC(=O)N(CC(=O)N(CC(=O)N(CCCCCCN)CC(=O)N(CC(=O)N(CC(N)=O)Cc1ccccc1)Cc1ccccc1)Cc1ccccc1)Cc1ccccc1)Cc1ccccc1)Cc1ccccc1` [Peptoid 7] (H-[Gly(N-(CH2)6NH2)][Nphe][Nphe][Gly(N-(CH2)6NH2)][Nphe][Nphe][Gly(N-(CH2)6NH2)][Nphe][Nphe]-NH2; N-terminus assumed), the “Percentage lysis of human erythrocytes” value in the data set with human erythrocytes was “less than 5%”.

On to `C[C@@H](c1ccccc1)N(CC(N)=O)C(=O)CN(C(=O)CN(CCN)C(=O)CN(C(=O)CN(C(=O)CN(CCN)C(=O)CN(C(=O)CN(C(=O)CNCCN)[C@@H](C)c1ccccc1)[C@@H](C)c1ccccc1)[C@@H](C)c1ccccc1)[C@@H](C)c1ccccc1)[C@@H](C)c1ccccc1` [Peptoid 5] (H-[Gly(N-2-aminoethyl)][Nspe][Nspe][Gly(N-2-aminoethyl)][Nspe][Nspe][Gly(N-2-aminoethyl)][Nspe][Nspe]-NH2; N-terminus assumed), for which the “Percentage lysis of human erythrocytes” value with human erythrocytes was ≥ 10%.

As to `NCCNCC(=O)N(CC(=O)N(CC(=O)N(CCN)CC(=O)N(CC(=O)N(CC(=O)N(CCN)CC(=O)N(CC(=O)N(CC(=O)N(CCN)CC(=O)N(CC(=O)N(CC(N)=O)Cc1ccccc1)Cc1ccccc1)Cc1ccccc1)Cc1ccccc1)Cc1ccccc1)Cc1ccccc1)Cc1ccccc1)Cc1ccccc1` [Peptoid 4, (NaeNpheNphe)4-NH2] (H-[Gly(N-2-aminoethyl)][Nphe][Nphe][Gly(N-2-aminoethyl)][Nphe][Nphe][Gly(N-2-aminoethyl)][Nphe][Nphe][Gly(N-2-aminoethyl)][Nphe][Nphe]-NH2; N-terminus assumed), the “F. nucleatum biofilm formation (live cell numbers by PMA-qPCR)” value in data set [1] (peptoid 1 µM) and in data set [1] (peptoid 10 µM) was “statistically significant reduction in biofilm formation” each time. Also, the “Percentage lysis of human erythrocytes” value in the data set on human erythrocytes was ≥ 10%. Further, the “Viability of gingival fibroblasts (MTT) vs untreated controls” value in data set [2] was “not to alter gingival fibroblast viability”.

On to `C[C@@H](c1ccccc1)N(CC(N)=O)C(=O)CN(C(=O)CN(CCCCCCN)C(=O)CN(C(=O)CN(C(=O)CN(CCCCCCN)C(=O)CN(C(=O)CN(C(=O)CNCCCCCCN)[C@@H](C)c1ccccc1)[C@@H](C)c1ccccc1)[C@@H](C)c1ccccc1)[C@@H](C)c1ccccc1)[C@@H](C)c1ccccc1` [Peptoid 9, (NahNspeNspe)3-NH2] (H-[Gly(N-(CH2)6NH2)][Nspe][Nspe][Gly(N-(CH2)6NH2)][Nspe][Nspe][Gly(N-(CH2)6NH2)][Nspe][Nspe]-NH2; N-terminus assumed), for which the “F. nucleatum biofilm formation (live cell numbers by PMA-qPCR)” value in data set [1] (peptoid 1 µM) and in data set [1] (peptoid 10 µM) was “statistically significant reduction in biofilm formation” each time. Also, the “Percentage lysis of human erythrocytes” value with human erythrocytes was “less than 5%”. The “Viability of gingival fibroblasts (MTT) vs untreated controls” value in data set [2] is on record as “not to alter gingival fibroblast viability”.

For the compound `C[C@@H](c1ccccc1)N(CC(N)=O)C(=O)CN(C(=O)CN(CCCCN)C(=O)CN(C(=O)CN(C(=O)CN(CCCCN)C(=O)CN(C(=O)CN(C(=O)CNCCCCN)[C@@H](C)c1ccccc1)[C@@H](C)c1ccccc1)[C@@H](C)c1ccccc1)[C@@H](C)c1ccccc1)[C@@H](C)c1ccccc1` [Peptoid 3] (H-[Nlys][Nspe][Nspe][Nlys][Nspe][Nspe][Nlys][Nspe][Nspe]-NH2; N-terminus assumed), the “Percentage lysis of human erythrocytes” value in the data set on human erythrocytes is listed as ≥ 10%.

`NCCCCNCC(=O)N(CC(=O)N(CC(=O)N(CCCCN)CC(=O)N(CC(=O)N(CC(=O)N(CCCCN)CC(=O)N(CC(=O)N(CC(=O)N(CCCCN)CC(=O)N(CC(=O)N(CC(N)=O)Cc1ccccc1)Cc1ccccc1)Cc1ccccc1)Cc1ccccc1)Cc1ccccc1)Cc1ccccc1)Cc1ccccc1)Cc1ccccc1` [Peptoid 1] (H-[Nlys][Nphe][Nphe][Nlys][Nphe][Nphe][Nlys][Nphe][Nphe][Nlys][Nphe][Nphe]-NH2; N-terminus assumed): in the data set with human erythrocytes, the “Percentage lysis of human erythrocytes” value is given as ≥ 10%.
